Assay results from ChEMBL document CHEMBL1697731, “Cheminformatics analysis of assertions mined from literature that describe drug-induced liver injury in different species” (Chem Res Toxicol, 2010).
Where a SMILES comes first, the peptide text is derived from it. Bridges are numbered along the chain shown (N, C = ends). [ ]: non-standard residue; d: D form. The star is where a group is joined. Ileψ(thiazoline)Cys = CC[C@H](C)[C@H](N)C1=N[C@H](C(=O)*)CS1; dOrn = NCCC[C@@H](N)C(=O)O

How the values were obtained:
[1] = tested on: Hepatotoxicity; assay: Literature-mined compound from Fourches et al multi-species drug-induced liver injury (DILI) dataset, effect in rodents; conditions: rodentia
[2] = tested on: Hepatotoxicity; assay: Literature-mined compound from Fourches et al multi-species drug-induced liver injury (DILI) dataset, effect in humans; conditions: human
[3] = tested on: Hepatotoxicity; assay: Literature-mined compound from Fourches et al multi-species drug-induced liver injury (DILI) dataset, effect in non-rodents

Row | SMILES | Hepatotoxicity [1] | Hepatotoxicity [2] | Hepatotoxicity [3] | Hepatotoxicity ([1]; Liver) | Hepatotoxicity ([2]; Liver) | Hepatotoxicity ([3]; Liver)
1 | NCCCC(N)(C(=O)O)C(F)F (stereo not drawn) [EFLORNITHINE] | drug-induced liver injury reported | no drug-induced liver injury reported | no drug-induced liver injury reported |  |  | 
2 | CO[C@H]1/C=C/O[C@@]2(C)Oc3c(C)c(O)c4c(O)c(cc(O)c4c3C2=O)NC(=O)/C(C)=C\C=C\[C@H](C)[C@H](O)[C@@H](C)[C@@H](O)[C@@H](C)[C@H](OC(C)=O)[C@@H]1C [RIFAMYCIN] | drug-induced liver injury reported | drug-induced liver injury reported | no drug-induced liver injury reported |  |  | 
3 | CNC(=C[N+](=O)[O-])NCCSCc1csc(CN(C)C)n1 [NIZATIDINE] | drug-induced liver injury reported | drug-induced liver injury reported | no drug-induced liver injury reported |  |  | 
4 | C[C@]12CC[C@@H]3c4ccc(OC(=O)N(CCCl)CCCl)cc4CC[C@H]3[C@@H]1CC[C@@H]2O [ESTRAMUSTINE] | no drug-induced liver injury reported | drug-induced liver injury reported | no drug-induced liver injury reported |  |  | 
5 | CCn1cc(C(=O)O)c(=O)c2ccc(C)nc21 [NALIDIXIC ACID] | drug-induced liver injury reported | drug-induced liver injury reported | no drug-induced liver injury reported |  |  | 
6 | CCN(CC)CCOc1ccc(C(=C(Cl)c2ccccc2)c2ccccc2)cc1 (stereo in doubt; form 1) [CLOMIPHENE] | no drug-induced liver injury reported | drug-induced liver injury reported | no drug-induced liver injury reported |  |  | 
7 | O=c1cc[nH]c(=O)[nH]1 [URACIL] | drug-induced liver injury reported | drug-induced liver injury reported | no drug-induced liver injury reported |  |  | 
8 | CCCC1O[C@@H]2C[C@H]3[C@@H]4CCC5=CC(=O)C=C[C@]5(C)[C@H]4[C@@H](O)C[C@]3(C)[C@]2(C(=O)CO)O1 (stereo partly drawn) [BUDESONIDE] | drug-induced liver injury reported | drug-induced liver injury reported | no drug-induced liver injury reported |  |  | 
9 | CC[C@H](C)[C@H](N)C1=N[C@H](C(=O)N[C@@H](CC(C)C)C(=O)N[C@H](CCC(=O)O)C(=O)N[C@H](C(=O)N[C@H]2CCCCNC(=O)[C@H](CC(N)=O)NC(=O)[C@@H](CC(=O)O)NC(=O)[C@H](Cc3cnc[nH]3)NC(=O)[C@@H](Cc3ccccc3)NC(=O)[C@H]([C@@H](C)CC)NC(=O)[C@@H](CCCN)NC2=O)[C@@H](C)CC)CS1 [BACITRACIN] ({Ileψ(thiazoline)Cys}-L[dE]IK[dOrn]I[dF]H[dD]N; lactam 4-C) | drug-induced liver injury reported | no drug-induced liver injury reported | no drug-induced liver injury reported |  |  | 
10 | COc1cc(C)c(/C=C/C(C)=C/C=C/C(C)=C/C(=O)O)c(C)c1C [ACITRETIN] | drug-induced liver injury reported | drug-induced liver injury reported | no drug-induced liver injury reported |  |  | 
11 | CC(C)c1nc(CN(C)C(=O)N[C@H](C(=O)N[C@@H](Cc2ccccc2)C[C@H](O)[C@H](Cc2ccccc2)NC(=O)OCc2cncs2)C(C)C)cs1 [RITONAVIR] | drug-induced liver injury reported | drug-induced liver injury reported | no drug-induced liver injury reported |  |  | 
12 | CC[C@H](c1ccc(O)cc1)[C@@H](CC)c1ccc(O)cc1 [HEXESTROL] | drug-induced liver injury reported | no drug-induced liver injury reported | no drug-induced liver injury reported |  |  | 
13 | Cc1onc(-c2ccccc2)c1C(=O)N[C@@H]1C(=O)N2[C@@H]1SC(C)(C)[C@@H]2C(=O)[O-].[Na+] | no drug-induced liver injury reported | drug-induced liver injury reported | no drug-induced liver injury reported |  |  | 
14 | Nc1ccc(S(=O)(=O)c2ccc(N)cc2)cc1 [DAPSONE] |  |  |  | no drug-induced liver injury reported | drug-induced liver injury reported | no drug-induced liver injury reported
15 | CNC(=O)OCc1cccc(COC(=O)NC)n1 [PYRICARBATE] | drug-induced liver injury reported | drug-induced liver injury reported | no drug-induced liver injury reported |  |  | 
16 | CC(=O)[O][Zn][O]C(C)=O [ZINC ACETATE ANHYDROUS] |  |  |  | drug-induced liver injury reported | no drug-induced liver injury reported | no drug-induced liver injury reported
17 | Clc1ccc2c(c1)C(c1ccccc1)=NCc1nncn1-2 [ESTAZOLAM] | drug-induced liver injury reported | no drug-induced liver injury reported | no drug-induced liver injury reported |  |  | 
18 | COc1ccc(C(CN(C)C)C2(O)CCCCC2)cc1 (stereo not drawn) [VENLAFAXINE] | no drug-induced liver injury reported | drug-induced liver injury reported | no drug-induced liver injury reported |  |  | 
19 | CN(C(=O)CN(CCO)CC(=O)N(C)C(C)(C)Cc1ccccc1)C(C)(C)Cc1ccccc1 [OXETHAZAINE] | drug-induced liver injury reported | no drug-induced liver injury reported | no drug-induced liver injury reported |  |  | 
20 | COc1ccc2nc([S@@+]([O-])Cc3ncc(C)c(OC)c3C)[nH]c2c1 [ESOMEPRAZOLE] | no drug-induced liver injury reported | drug-induced liver injury reported | no drug-induced liver injury reported |  |  | 
21 | COC(=O)c1ccccc1O [METHYL SALICYLATE] | no drug-induced liver injury reported | no drug-induced liver injury reported | drug-induced liver injury reported |  |  | 
22 | O=P1(NCCCl)OCCCN1CCCl (stereo not drawn) [IFOSFAMIDE] | no drug-induced liver injury reported | drug-induced liver injury reported | no drug-induced liver injury reported |  |  | 
23 | COC(=O)C(c1ccccc1)C1CCCCN1 (stereo not drawn) [METHYLPHENIDATE] | drug-induced liver injury reported | drug-induced liver injury reported | no drug-induced liver injury reported |  |  | 
24 | Cc1c(O)cccc1C(=O)N[C@@H](CSc1ccccc1)[C@H](O)CN1C[C@H]2CCCC[C@H]2C[C@H]1C(=O)NC(C)(C)C | no drug-induced liver injury reported | drug-induced liver injury reported | no drug-induced liver injury reported |  |  | 
25 | Cc1ccc(C(=O)C(C)CN2CCCCC2)cc1 (stereo not drawn) [TOLPERISONE] | no drug-induced liver injury reported | drug-induced liver injury reported | no drug-induced liver injury reported |  |  | 
26 | CN1[C@@H]2CC[C@H]1C[C@@H](OC(=O)C(CO)c1ccccc1)C2 (mixture of isomers) [ATROPINE] |  |  |  | drug-induced liver injury reported | no drug-induced liver injury reported | no drug-induced liver injury reported
